Measurements taken from paper PMC6792352, “Limited Chemical Structural Diversity Found to Modulate Thyroid Hormone Receptor in the Tox21 Chemical Library” (Environmental Health Perspectives, 2019).
Counter-ions that a name gives are not always drawn. Non-standard residues stand in square brackets, D forms with d. Residues, ends and D or L forms follow the SMILES beside them. Orn = NCCC[C@H](N)C(=O)O

Test: in vitro
Conditions: rat, gh3-tre-luc cells, AC50 (uM) modified / 1000

| Structure (SMILES) | CC50 at 24 h |
| --- | --- |
| O=C1C=CC(=O)C=C1 [1,4-Benzoquinone] | > 90 µM |
| COc1ccc(CCN(C)CCCC(C#N)(c2ccc(OC)c(OC)c2)C(C)C)cc1OC (stereo not drawn) [Verapamil hydrochloride] | 24.5 µM |
| CCN(Cc1ccc(Cl)nc1)/C(=C/[N+](=O)[O-])NC [(E)-Nitenpyram] | > 50 µM |
| CCCNC(C)C(=O)Nc1ccccc1C (stereo not drawn) [Prilocaine hydrochloride] | > 50 µM |
| CC(O)Cn1cnc2c1c(=O)n(C)c(=O)n2C (stereo not drawn) [Proxyphylline] | > 20 µM |
| COC(=O)CS [Methyl thioglycolate] | > 90 µM |
| CC(C)CC=O [3-Methylbutanal] | > 90 µM |
| Cc1cc(N)c(S(=O)(=O)O)cc1Cl [2-Amino-5-chloro-4-methylbenzenesulfonic acid] | > 90 µM |
| O=C(O)CC(=O)O [Propanedioic acid] | > 90 µM |
| COc1cc([N+](=O)[O-])ccc1N [2-Methoxy-4-nitroaniline] | 40.9 µM |
| Cc1cnc(C(=O)O)c[n+]1[O-] [Acipimox] | > 50 µM |
| CCCCCCCCCC[N+](C)(CCCCCCCCCC)CCC[Si](OC)(OC)OC [Disiquonium chloride] | 25.6 µM |
| CCOc1ccccc1C(N)=O [2-Ethoxybenzamide] | > 90 µM |
| C/C=C(C)/C=C/C=C(C)C [2,6-Dimethyl-2,4,6-octatriene] | > 90 µM |
| CCCCCOc1ccc(C2SC(=O)NC2=O)cc1OCC (stereo not drawn) [Risarestat] | > 50 µM |
| C1OCOCO1 [1,3,5-Trioxane] | > 90 µM |
| C[C@@H]1C[C@H]2[C@@H]3C[C@H](F)C4=CC(=O)C(Cl)=C[C@]4(C)[C@@]3(F)[C@@H](O)C[C@]2(C)[C@@]1(O)C(=O)CO [Halometasone hydrate] | > 50 µM |
| O=C(O)c1cc(C(=O)O)c(C(=O)O)cc1C(=O)O [Pyromellitic acid] | > 90 µM |
| CC(O)CN(CCN(CC(C)O)CC(C)O)CC(C)O (stereo not drawn) [N,N,N',N'-Tetrakis(2-Hydroxypropyl)ethylenediamine] | > 90 µM |
| CC1(C)C2=CCCC(C)(C)[C@]23CC[C@H]1C3 [(-)-Isolongifolene] | > 90 µM |
| CCCCOCCOC(=O)c1ccccc1C(=O)OCCOCCCC [Bis(2-butoxyethyl) phthalate] | > 90 µM |
| Cc1ccc(C(C)(C)C)cc1 [4-tert-Butyltoluene] | > 90 µM |

| Structure (SMILES) | CC50 at 24 h |
| --- | --- |
| O=[N+]([O-])c1ccccc1-c1ccccc1 [2-Nitro-1,1'-biphenyl] | > 90 µM |
| COc1ccc2cc(S(=O)(=O)N[C@H](CC(=O)N[C@H](Cc3ccc(CN4[C@H](C)CCC[C@@H]4C)cc3)C(=O)N(C)C(C)C)c3ccc4c(c3)OCO4)ccc2c1 [SSR 240612] | 4.04 µM |
| C=CCC1=C(C)C(OC(=O)[C@@H]2[C@@H](C=C(C)C)C2(C)C)CC1=O (stereo partly drawn) [Allethrin] | 53.2 µM |
| COc1ccc(S(=O)(=O)N2C(=O)[C@@](c3ccccc3OC)(N3C[C@H](O)C[C@H]3C(=O)N(C)C)c3cc(Cl)ccc32)c(OC)c1 [Nelivaptan] | 34.9 µM |
| COC(=O)c1ccc(C(=O)O)cc1 [1,4-Benzenedicarboxylic acid, monomethyl ester] | > 90 µM |
| Cc1ccc2c(c1)OCC(=O)CO2 [7-Methyl-2H-1,5-benzodioxepin-3(4H)-one] | > 90 µM |
| NC(=S)NNC(N)=S [2,5-Dithiobiurea] | > 90 µM |
| C=CC[N+]1([C@H]2C[C@H]3[C@@H]4CC[C@H]5C[C@H](OC(C)=O)[C@@H](N6CCCCC6)C[C@]5(C)[C@H]4CC[C@]3(C)[C@H]2OC(=O)CC)CCCCC1 [Rapacuronium bromide] | > 50 µM |
| CC1(C)CC(=O)CC(C)(C)N1 [2,2,6,6-Tetramethyl-4-piperidone] | > 90 µM |
| CC/C(=N\OC/C=C/Cl)C1=C(O)CC(C2CCOCC2)CC1=O (stereo not drawn) [Tepraloxydim] | > 90 µM |
| N#C[C@@H]1CC(F)(F)CN1C(=O)CNC1CC2CCC(C1)N2c1ncccn1 (stereo partly drawn) [SSR162369] | > 90 µM |
| Cc1[nH]c(=O)n(C(C)(C)C)c(=O)c1Cl [Terbacil] | > 90 µM |
| CC(=O)Nc1ccc(CC(=O)O)cc1 [4-Acetylaminophenylacetic acid] | > 90 µM |
| O=Cc1ccc(CO)o1 [5-(Hydroxymethyl)-2-furfural] | > 90 µM |
| CCOC(=O)[C@H](CCc1ccccc1)N[C@@H](C)C(=O)N1[C@H](C(=O)O)C[C@H]2CCCC[C@@H]21 [Trandolapril] | > 50 µM |
| CCCCCCCCS(=O)(=O)O [Sodium 1-octanesulfonate] | > 90 µM |
| Nc1cc(Cl)c([N+](=O)[O-])cc1O [2-Amino-4-chloro-5-nitrophenol] | 36.9 µM |
| O=C(O[C@H]1CN2CCC1CC2)N1CCc2ccccc2[C@@H]1c1ccccc1 [Solifenacin hydrochloride] | 19.6 µM |
| C[N+](C)(C)CCOC(=O)CCC(=O)OCC[N+](C)(C)C [Succinylcholine chloride] | > 50 µM |
| CC(C)(c1cc(Br)c(OCCO)c(Br)c1)c1cc(Br)c(OCCO)c(Br)c1 | 44.3 µM |
| CN(C(=O)CN(CCO)CC(=O)N(C)C(C)(C)Cc1ccccc1)C(C)(C)Cc1ccccc1 [Oxethazaine] | 16.2 µM |
| CCCC(O)C(CC)CO (stereo not drawn) [2-Ethyl-1,3-hexanediol] | > 90 µM |

| Structure (SMILES) | CC50 at 24 h |
| --- | --- |
| Nc1ccc(N=Nc2ccccc2)c(N)c1 [C.I. Basic Orange 2] | 64.1 µM |
| OC(c1ccc(Cl)cc1)(c1ccc(Cl)cc1)C(Cl)(Cl)Cl [Dicofol] | 79.5 µM |
| Cc1cc(C(C)(C)C)c(O)c(C)c1Cn1c(=O)n(Cc2c(C)cc(C(C)(C)C)c(O)c2C)c(=O)n(Cc2c(C)cc(C(C)(C)C)c(O)c2C)c1=O [Cyanox CY 1790] | > 90 µM |
| C[C@H]1[C@@H](c2ccccc2)NC(=O)N1C [(4R,5S)-(-)-1,5-Dimethyl-4-phenyl-2-imidazolidinone] | > 90 µM |
| CCCCCCC1(C)CCC(=O)O1 (stereo not drawn) [Dihydrojasmone lactone] | > 90 µM |
| CCCCC(=O)OCC(=O)[C@]1(O)Cc2c(O)c3c(c(O)c2[C@@H](O[C@H]2C[C@H](NC(=O)C(F)(F)F)[C@H](O)[C@H](C)O2)C1)C(=O)c1c(OC)cccc1C3=O [Valrubicin] | 8.11 µM |
| Nc1ccn([C@H]2CC[C@@H](CO)O2)c(=O)n1 [2',3'-Dideoxycytidine] | > 50 µM |
| CCCCCCCCCCCCCCCC(=O)OC/C=C(C)/C=C/C=C(C)/C=C/C1=C(C)CCCC1(C)C [Retinol palmitate] | > 50 µM |
| CC(C)[C@H]1CC[C@@H](C)CC1=O (stereo in doubt) [(2R,5R)-5-Methyl-2-(propan-2-yl)cyclohexanone] | > 90 µM |
| CC1=C(C(=O)Nc2ccccc2)SCCO1 [Carboxin] | > 90 µM |
| N=C(N)c1ccc(/C=C/c2ccc(C(=N)N)cc2O)cc1 [Hydroxystilbamidine bis(methanesulfonate)] | > 50 µM |
| CNCCCN1c2ccccc2CCc2ccccc21 [Desipramine hydrochloride] | 7.08 µM |
| CCOC(=O)O[C@H](C)OC(=O)c1ccc2c(c1)cc(C(=O)NC1CCN(C(C)C)CC1)n2Cc1cc(-c2ccc(Cl)s2)on1 [AVE6324] | 4.58 µM |
| CC(C)C[C@@H]1NC(=O)[C@H](CCCN)NC(=O)[C@H](C(C)C)NC(=O)[C@@H]2CCCN2C(=O)[C@@H](Cc2ccccc2)NC(=O)[C@H](CC(C)C)NC(=O)[C@H](CCCN)NC(=O)[C@H](C(C)C)NC(=O)[C@@H]2CCCN2C(=O)[C@@H](Cc2ccccc2)NC1=O [Gramicidin S] (cyclo(L[dF]PV[Orn]L[dF]PV[Orn])) | 3.05 µM |
| CN(C)CCC=C1c2ccccc2C(C)(C)c2ccccc21 [Melitracen hydrochloride] | 19.6 µM |
| COCCCOCCCOC [Dipropylene glycol dimethyl ether] | > 90 µM |
| Cc1ccccc1[N+](=O)[O-] [2-Nitrotoluene] | > 90 µM |
| COCCOCCOCCO [2-[2-(2-Methoxyethoxy)ethoxy]ethanol] | > 90 µM |
| O=C(CCBr)N1CCN(C(=O)CCBr)CC1 [Pipobroman] | > 50 µM |
| CC(CCc1ccc(O)cc1)NCC(O)c1ccc(O)cc1 (stereo not drawn) [Ractopamine hydrochloride] | > 50 µM |
| COC(=O)c1ccc(I)cc1S(=O)(=O)NC(=O)Nc1nc(C)nc(OC)n1 [Iodosulfuron-methyl-sodium] | > 90 µM |
| CCCC(=O)O[C@]1(C(=O)CO)CC[C@H]2[C@@H]3CCC4=CC(=O)CC[C@]4(C)[C@H]3[C@@H](O)C[C@@]21C [Hydrocortisone 17-butyrate] | > 50 µM |

Same assay, conditions: rat, gh3-tre-luc cells, AC50 (uM) modified / 1000, Tox21_110001=Tox21_112409; viability, 1 nM T3 present, 24 h

| Structure (SMILES) | CC50 at 24 h |
| --- | --- |
| CCN(CC)C(=O)C(Cl)=C(C)OP(=O)(OC)OC [Phosphamidon] | > 50 µM |

Same assay, conditions: rat, gh3-tre-luc cells, AC50 (uM) modified / 1000, Tox21_110001=Tox21_201114; viability, 1 nM T3 present, 24 h

| Structure (SMILES) | CC50 at 24 h |
| --- | --- |
| O=C(O)CCl [Chloroacetic acid] | > 90 µM |

Same assay, conditions: rat, gh3-tre-luc cells, AC50 (uM) modified / 1000, Tox21_110001=Tox21_201151; viability, 1 nM T3 present, 24 h

| Structure (SMILES) | CC50 at 24 h |
| --- | --- |
| N#C/C=C/C#N [Fumaronitrile] | 49.9 µM |

Same assay, conditions: rat, gh3-tre-luc cells, AC50 (uM) modified / 1000, Tox21_110001=Tox21_201315; viability, 1 nM T3 present, 24 h

| Structure (SMILES) | CC50 at 24 h |
| --- | --- |
| CCOC(=O)C1OC1(C)c1ccccc1 (stereo not drawn) [Ethyl methylphenylglycidate] | > 90 µM |

Same assay, conditions: rat, gh3-tre-luc cells, AC50 (uM) modified / 1000, Tox21_110001=Tox21_202100; viability, 1 nM T3 present, 24 h

| Structure (SMILES) | CC50 at 24 h |
| --- | --- |
| CCN(CC)C(=O)C(Cl)=C(C)OP(=O)(OC)OC [Phosphamidon] | > 90 µM |

Same assay, conditions: rat, gh3-tre-luc cells, AC50 (uM) modified / 1000, Tox21_110001=Tox21_202224; viability, 1 nM T3 present, 24 h

| Structure (SMILES) | CC50 at 24 h |
| --- | --- |
| Nc1ccc(-c2ccc(N)c(Cl)c2)cc1Cl [3,3'-Dichlorobenzidine] | 26.1 µM |

Same assay, conditions: rat, gh3-tre-luc cells, AC50 (uM) modified / 1000, Tox21_110001=Tox21_202438; viability, 1 nM T3 present, 24 h

| Structure (SMILES) | CC50 at 24 h |
| --- | --- |
| O=[N+]([O-])c1ccc(Oc2ccc(Cl)cc2Cl)cc1 [Nitrofen] | > 90 µM |

Same assay, conditions: rat, gh3-tre-luc cells, AC50 (uM) modified / 1000, Tox21_110001=Tox21_300175; viability, 1 nM T3 present, 24 h

| Structure (SMILES) | CC50 at 24 h |
| --- | --- |
| CCOP(=S)(OCC)SCSP(=S)(OCC)OCC [Ethion] | > 90 µM |

Same assay, conditions: rat, gh3-tre-luc cells, AC50 (uM) modified / 1000, Tox21_110001=Tox21_302210; viability, 1 nM T3 present, 24 h

| Structure (SMILES) | CC50 at 24 h |
| --- | --- |
| CNC(=O)Oc1c(C(C)(C)C)cc(C)cc1C(C)(C)C [Terbucarb] | > 90 µM |
